Laboratory results from the supplement of paper PMC10307832.

Assays:
Experiment in all cases: relative viability (nuclei count vs DMSO), 5 days (fraction); higher = more cells survive
RAF265 + Luminespib = compound: Cn1c(Nc2ccc(C(F)(F)F)cc2)nc2cc(Oc3ccnc(-c4ncc(C(F)(F)F)[nH]4)c3)ccc21 [RAF265] + CCNC(=O)c1noc(-c2cc(C(C)C)c(O)cc2O)c1-c1ccc(CN2CCOCC2)cc1 [Luminespib] (partner 0.01 µM)
Method in brief: (§1)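 Lung cancer cell lines were pin-tool dosed in 1536-well plates on the day after seeding, with either a lone drug or a fixed anchor-drug dose plus five library-drug doses (not always all listed) in √10 steps. Nuclei were counted on 4× images after 5 days. Relative viability is the ratio of treated-well to vehicle-well nuclei counts, with each value a median of duplicate plates.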

IPA-3 + Dasatinib = compound: C1=CC=C2C(=C1)C=CC(=C2SSC3=C(C=CC4=CC=CC=C43)O)O [IPA-3] + Cc1nc(Nc2ncc(C(=O)Nc3c(C)cccc3Cl)s2)cc(N2CCN(CCO)CC2)n1 [Dasatinib] (partner 0.075 µM)
Method in brief: as §1

RAF265 + Lapatinib = compound: Cn1c(Nc2ccc(C(F)(F)F)cc2)nc2cc(Oc3ccnc(-c4ncc(C(F)(F)F)[nH]4)c3)ccc21 [RAF265] + CS(=O)(=O)CCNCc1ccc(-c2ccc3ncnc(Nc4ccc(OCc5cccc(F)c5)c(Cl)c4)c3c2)o1 [Lapatinib] (partner 2 µM)
Method in brief: as §1

Doramapimod + Pictilisib = compound: Cc1ccc(-n2nc(C(C)(C)C)cc2NC(=O)Nc2ccc(OCCN3CCOCC3)c3ccccc23)cc1 [Doramapimod] + CS(=O)(=O)N1CCN(Cc2cc3nc(-c4cccc5[nH]ncc45)nc(N4CCOCC4)c3s2)CC1 [Pictilisib] (partner 1 µM)
Method in brief: as §1

Row | Cell Line | relative viability (RAF265 + Luminespib; first compound 0.01 µM) | relative viability (RAF265 + Luminespib; first compound 0.03162 µM) | relative viability (RAF265 + Luminespib; first compound 0.1 µM) | relative viability (RAF265 + Luminespib; first compound 1 µM) | relative viability (IPA-3 + Dasatinib; first compound 0.2 µM) | relative viability (IPA-3 + Dasatinib; first compound 0.6325 µM) | relative viability (IPA-3 + Dasatinib; first compound 2 µM) | relative viability (IPA-3 + Dasatinib; first compound 6.325 µM) | relative viability (IPA-3 + Dasatinib; first compound 20 µM) | relative viability (RAF265 + Luminespib; first compound 0.3162 µM) | relative viability (RAF265 + Lapatinib; first compound 0.01 µM) | relative viability (RAF265 + Lapatinib; first compound 0.03162 µM) | relative viability (RAF265 + Lapatinib; first compound 0.1 µM) | relative viability (RAF265 + Lapatinib; first compound 0.3162 µM) | relative viability (RAF265 + Lapatinib; first compound 1 µM) | relative viability (Doramapimod + Pictilisib; first compound 0.02 µM) | relative viability (Doramapimod + Pictilisib; first compound 0.06325 µM) | relative viability (Doramapimod + Pictilisib; first compound 0.2 µM) | relative viability (Doramapimod + Pictilisib; first compound 0.6325 µM) | relative viability (Doramapimod + Pictilisib; first compound 2 µM)
1 | NCI-H522 | 0.984 | 1.26 | 1.27 | 0.957 | 0.875 | 0.922 | 0.847 | 0.86 | 0.884 |  |  |  |  |  |  |  |  |  |  | 
2 | NCI-H1944 | 0.858 | 0.71 | 0.726 | 0.332 | 0.213 | 0.198 | 0.244 | 0.314 | 0.234 | 0.529 | 0.79 | 0.966 | 0.924 | 0.75 | 0.562 | 0.319 | 0.378 | 0.339 | 0.372 | 0.322
3 | NCI-H727 | 0.332 | 0.345 | 0.6 | 0.263 | 0.295 | 0.423 | 0.328 | 0.385 | 0.389 | 0.383 | 0.915 | 0.736 | 0.963 | 1.1 | 0.371 | 0.213 | 0.5 | 0.408 | 0.321 | 0.411
4 | NCI-H1650 | 0.176 | 0.208 | 0.192 | 0.216 | 0.331 | 0.301 | 0.323 | 0.404 | 0.295 | 0.205 | 0.844 | 0.749 | 0.874 | 0.325 | 0.637 | 0.537 | 0.629 | 0.724 | 0.329 | 0.474
5 | HCC-827 | 0.837 | 0.652 | 0.74 | 0.132 | 0.419 | 0.358 | 0.405 | 0.302 | 0.292 |  | 0.186 | 0.197 | 0.196 |  | 0.147 | 1.15 | 0.972 | 1.06 | 0.933 | 0.738
6 | HCC-366 |  |  |  |  | 0.892 | 0.613 | 0.604 | 0.656 | 0.679 |  | 1.03 | 1.08 | 1.23 | 1.02 | 1.05 | 0.15 | 0.137 | 0.131 | 0.125 | 0.136
7 | HARA | 0.64 | 0.627 | 0.476 | 0.165 | 0.264 | 0.245 | 0.286 | 0.348 | 0.277 | 0.509 | 0.889 | 0.752 | 0.633 | 0.493 | 0.421 | 0.281 | 0.347 | 0.273 | 0.503 | 0.302
8 | NCI-H322M | 0.868 | 0.722 | 0.545 | 0.304 | 0.228 | 0.248 | 0.248 | 0.309 | 0.264 | 0.305 | 0.579 | 0.529 | 0.481 | 0.342 | 0.258 | 0.902 | 0.501 | 0.577 | 0.585 | 0.479
9 | LXF-289 | 0.736 | 0.6 | 0.699 | 0.357 | 0.279 | 0.264 | 0.28 | 0.176 | 0.237 | 0.534 | 0.942 | 0.953 | 0.858 | 0.785 | 0.743 | 0.776 | 0.76 | 0.695 | 0.716 | 0.662
10 | PC-3 [JPC-3] | 0.667 | 0.654 | 0.713 | 0.386 | 1.08 | 1.02 | 1.04 | 0.865 | 1.01 |  | 0.423 | 0.471 | 0.475 | 0.38 | 0.36 | 0.809 | 0.772 | 0.771 | 0.897 | 0.421
11 | CAL-12T | 0.238 | 0.426 | 0.341 | 0.0919 | 0.627 | 0.418 | 0.379 | 0.409 | 0.524 | 0.491 | 0.68 | 0.653 | 0.825 | 0.598 | 0.449 | 0.456 | 0.378 | 0.463 | 0.33 | 0.392
12 | COR-L 105 | 0.826 | 0.821 | 0.666 | 0.385 | 0.401 | 0.34 | 0.305 | 0.332 | 0.272 | 0.766 | 0.341 | 0.376 | 0.383 | 0.342 | 0.322 | 0.425 | 0.344 | 0.374 | 0.426 | 0.379
13 | NCI-H2347 | 0.445 | 0.775 | 0.849 | 0.234 | 0.357 | 0.305 | 0.336 | 0.41 | 0.336 | 0.337 | 1.1 | 0.915 | 0.998 | 0.887 | 0.435 | 0.637 | 0.547 | 0.497 | 0.829 | 0.347
14 | NCI-H2126 | 0.918 | 0.87 | 0.908 | 0.654 | 0.709 | 0.58 | 0.68 | 0.633 | 0.545 | 0.628 | 0.765 | 0.732 | 0.718 | 0.756 | 0.662 | 0.487 | 0.542 | 0.488 | 0.438 | 0.401
